Details: for mass density: Fluid (supercritical or subcritical phases), Vibrating tube method; for vapor or sublimation pressure: Liquid

C=C(C)C [2-methylpropene]
Details	mass density [kg/m3]
273.23 K, 615 kPa	619.2
273.23 K, 9987 kPa	631.07
273.23 K, 15001 kPa	636.64
273.23 K, 20001 kPa	641.78
273.23 K, 25007 kPa	646.58
273.23 K, 29992 kPa	651.06
273.23 K, 34986 kPa	655.29
273.23 K, 40007 kPa	659.29
273.24 K, 5018 kPa	625.04
278.24 K, 625 kPa	613.32
278.24 K, 9983 kPa	625.79
278.24 K, 29985 kPa	646.57
278.25 K, 4992 kPa	619.43
278.25 K, 14997 kPa	631.6
278.25 K, 19994 kPa	636.96
278.25 K, 24995 kPa	641.93
278.25 K, 35001 kPa	650.96
278.25 K, 39983 kPa	655.07
283.26 K, 623 kPa	607.34
283.26 K, 4980 kPa	613.78
283.26 K, 10001 kPa	620.49
283.26 K, 15002 kPa	626.55
283.26 K, 19992 kPa	632.11
283.26 K, 24993 kPa	637.28
283.26 K, 29994 kPa	642.09
283.26 K, 34999 kPa	646.62
283.26 K, 39994 kPa	650.87
288.27 K, 622 kPa	601.26
288.27 K, 4986 kPa	608.09
288.27 K, 9999 kPa	615.12
288.27 K, 15002 kPa	621.46
288.27 K, 20000 kPa	627.26
288.27 K, 24990 kPa	632.61
288.27 K, 30003 kPa	637.6
288.27 K, 35005 kPa	642.28
288.27 K, 40002 kPa	646.66
293.28 K, 624 kPa	595.08
293.28 K, 4999 kPa	602.33
293.28 K, 9991 kPa	609.69
293.28 K, 14989 kPa	616.34
293.28 K, 19994 kPa	622.38
293.28 K, 24993 kPa	627.94
293.28 K, 30001 kPa	633.11
293.28 K, 35003 kPa	637.94
293.28 K, 39987 kPa	642.44
298.3 K, 624 kPa	588.78
298.3 K, 4988 kPa	596.46
298.3 K, 9992 kPa	604.23
298.3 K, 14991 kPa	611.17
298.3 K, 20004 kPa	617.49
298.3 K, 25009 kPa	623.26
298.3 K, 30005 kPa	628.61
298.3 K, 34998 kPa	633.59
298.3 K, 40003 kPa	638.26
303.3 K, 638 kPa	582.38
303.3 K, 14996 kPa	606.02
303.3 K, 19992 kPa	612.59
303.3 K, 24991 kPa	618.59
303.3 K, 34996 kPa	629.29
303.3 K, 39999 kPa	634.1
303.31 K, 4990 kPa	590.52
303.31 K, 9994 kPa	598.73
303.31 K, 29988 kPa	624.13
308.31 K, 706 kPa	575.94
308.32 K, 4988 kPa	584.48
308.32 K, 9989 kPa	593.14
308.32 K, 14992 kPa	600.77
308.32 K, 19998 kPa	607.63
308.32 K, 24997 kPa	613.87
308.32 K, 30005 kPa	619.62
308.32 K, 34988 kPa	624.91
308.32 K, 40003 kPa	629.89
313.2 K, 951 kPa	569.89
313.2 K, 4993 kPa	578.43
313.2 K, 9992 kPa	587.58
313.2 K, 14986 kPa	595.55
313.2 K, 19994 kPa	602.7
313.2 K, 24994 kPa	609.17
313.2 K, 29987 kPa	615.08
313.2 K, 34991 kPa	620.58
313.2 K, 40013 kPa	625.7
318.21 K, 1034 kPa	563.28
318.21 K, 4991 kPa	572.22
318.21 K, 9993 kPa	581.88
318.21 K, 15000 kPa	590.28
318.21 K, 20002 kPa	597.73
318.21 K, 24998 kPa	604.47
318.21 K, 29993 kPa	610.61
318.21 K, 34995 kPa	616.28
318.21 K, 39991 kPa	621.54
323.22 K, 1130 kPa	556.5
323.22 K, 5015 kPa	565.89
323.22 K, 10019 kPa	576.14
323.22 K, 15017 kPa	584.94
323.22 K, 20010 kPa	592.7
323.22 K, 25016 kPa	599.69
323.22 K, 30006 kPa	606.04
323.22 K, 34990 kPa	611.88
328.22 K, 1213 kPa	549.51
328.22 K, 4997 kPa	559.34
328.22 K, 10001 kPa	570.24

Details	vapor or sublimation pressure [kPa]
285.97 K	206.58
297.46 K	297.04
307.88 K	404.2
315.82 K	503.41
324.78 K	633

— the NIST ThermoML archive (doi:10.1016/j.fluid.2004.09.013)
